Results taken from paper PMC7180572, “5-Alkylamino-N-phenylpyrazine-2-carboxamides: Design, Preparation, and Antimycobacterial Evaluation” (Molecules, 2020).
Where two headings read alike, the source gives them in different places.

Key:
[1] = tested on: Aspergillus fumigatus ATCC 204305; test: Antifungal microdilution broth method (EUCAST); assay type: cell-based; conditions: read-out: MIC AF
[2] = tested on: Absidia corymbifera CCM 8077 (Lichtheimia corymbifera); test: Antifungal microdilution broth method (EUCAST); assay type: cell-based; conditions: read-out: MIC AC
[3] = tested on: Candida albicans ATCC 24433, CCM 8320; test: Antifungal microdilution broth method (EUCAST); assay type: cell-based; conditions: read-out: MIC CA
[4] = tested on: Candida tropicalis ATCC 750, CCM 8264; test: Antifungal microdilution broth method (EUCAST); assay type: cell-based; conditions: read-out: MIC CT
[5] = tested on: Candida krusei ATCC 6258, CCM 8271; test: Antifungal microdilution broth method (EUCAST); assay type: cell-based; conditions: Pichia kudriavzevii, read-out: MIC CK
[6] = tested on: Trichophyton interdigitale ATCC 9533, CCM 8377; test: Antifungal microdilution broth method (EUCAST); assay type: cell-based; conditions: read-out: MIC TI
[7] = tested on: Staphylococcus aureus methicillin resistant ATCC 43300, CCM 4750; test: microbe, parasite or virus in culture; assay type: cell-based; conditions: ATCC 43300 / CCM 4750 / MRSA, read-out: MIC MRSA
[8] = tested on: Enterococcus faecalis ATCC 29212, CCM 4224; test: Antibacterial microdilution broth method (EUCAST); assay type: cell-based; conditions: read-out: MIC EF
HepG2 cells = test: HepG2 cytotoxicity, CellTiter 96 (MTS) assay; assay type: cell-based, human; conditions: Homo sapiens, HepG2, 24 h, read-out: HepG2 IC50
[9] = tested on: Candida parapsilosis ATCC 22019, CCM 8260; test: Antifungal microdilution broth method (EUCAST); assay type: cell-based; conditions: Lodderomyces parapsilosis, read-out: MIC CP
[10] = tested on: Escherichia coli ATCC 25922, CCM 3954; test: Antibacterial microdilution broth method (EUCAST); assay type: cell-based; conditions: read-out: MIC EC
[11] = tested on: Mycobacterium tuberculosis H37Ra ITM-M006710 (ATCC 9431); test: Microdilution broth, modified Microplate Alamar Blue Assay, whole cell growth inhibition; assay type: cell-based; conditions: Mycobacterium tuberculosis; in vitro, Middlebrook 7H9 broth, resazurin; read-out: MIC Mtb H37Ra
[12] = tested on: Aspergillus flavus CCM 8363; test: Antifungal microdilution broth method (EUCAST); assay type: cell-based; conditions: read-out: MIC AFla
[13] = tested on: Acinetobacter baumanii ATCC 19606, DSM 30007; test: Antibacterial microdilution broth method (EUCAST); assay type: cell-based; conditions: Acinetobacter baumannii
[14] = tested on: Mycobacterium aurum DSM 43999 (ATCC 23366); test: Microdilution broth, modified Microplate Alamar Blue Assay, whole cell growth inhibition; assay type: cell-based; conditions: Mycolicibacterium aurum, read-out: MIC Mycobacterium aurum
[15] = tested on: Mycobacterium smegmatis DSM 43465 (ATCC 607); test: as above; assay type: cell-based; conditions: Mycolicibacterium smegmatis, read-out: MIC Mycobacterium smegmatis
[16] = tested on: Pseudomonas aeruginosa ATCC 27853, CCM 3955; test: Antibacterial microdilution broth method (EUCAST); assay type: cell-based; conditions: read-out: MIC PA
[17] = tested on: Staphylococcus epidermidis ATCC 12228, CCM 4418; test: Antibacterial microdilution broth method (EUCAST); assay type: cell-based; conditions: read-out: MIC SE
[18] = tested on: Staphylococcus aureus spp.aureus ATCC 29213, CCM 4223; test: Antibacterial microdilution broth method (EUCAST); assay type: cell-based; conditions: read-out: MIC SA
[19] = tested on: Klebsiella pneumoniae ATCC 10031, CCM 4415; test: Antibacterial microdilution broth method (EUCAST)

Structure (SMILES): CCCCCCCCNc1cnc(C(=O)Nc2ccc(C)cc2)cn1 [Compound 4f, 5-(octylamino)-N-(p-tolyl)pyrazine-2-carboxamide]
- MIC ([1]; ATCC204305, 24 h): > 125 µM
- MIC ([1]; ATCC204305, 48 h): > 125 µM
- MIC ([2]; CCM8077, 24 h): > 125 µM
- MIC ([2]; CCM8077, 48 h): > 125 µM
- MIC ([3]; 24 h): > 125 µM
- MIC ([3]; 48 h): > 125 µM
- MIC ([4]; 24 h): > 125 µM
- MIC ([4]; 48 h): > 125 µM
- MIC ([5]; 24 h): > 125 µM
- MIC ([5]; 48 h): > 125 µM
- MIC ([6]; 72 h): > 125 µM
- MIC ([6]; 120 h): > 125 µM
- MIC ([7]; 24 h): > 125 µM
- MIC ([7]; 48 h): > 125 µM
- MIC ([8]; 24 h): > 125 µM
- MIC ([8]; 48 h): > 125 µM
- IC50 (HepG2 cells): > 25 µM
- MIC ([9]; 24 h): > 125 µM
- MIC ([9]; 48 h): > 125 µM
- MIC ([10]; 24 h): > 125 µM
- MIC ([10]; 48 h): > 125 µM
- MIC [11]: ≥ 250 µg/mL
- MIC ([12]; CCM8363, 24 h): > 125 µM
- MIC ([12]; CCM8363, 48 h): > 125 µM
- MIC ([13]; 24h): > 125 µM
- MIC ([13]; 48h): > 125 µM
- MIC [14]: ≥ 250 µg/mL
- MIC [15]: ≥ 250 µg/mL
- MIC ([16]; 72 h): > 125 µM
- MIC ([16]; 120 h): > 125 µM
- MIC ([17]; 24 h): > 125 µM
- MIC ([17]; 48 h): > 125 µM
- MIC ([18]; 24 h): > 125 µM
- MIC ([18]; 48 h): > 125 µM
- MIC KP ([19]; 24h): > 125 µM
- MIC KP ([19]; 48h): > 125 µM
- melting point: 155 to 156 °C
